These results are taken from patent US20060051764A1, “Thymidylate synthase polymorphisms for use in screening for cancer susceptibility” (priority 2002, published 2006).

The test system of series [1] is disseminated colorectal cancer. Put plainly: Clinical outcome (response and survival) to protracted infusion of 5-FU in colorectal cancer patients by TS genotype. It counts as in vivo, human. The method, then:
To explore the role of SNP as a predictive marker, 40 patients were evaluated with disseminated colorectal cancer (SWOG 9420 and 3C-92-2) for response and survival to protracted infusion of 5-fluorouracil. The distribution of the TS tandem repeat polymorphism was as follows: 2R/2R 20% (8/40), 2R/3R 50% (20/40), and 3R/3R 30% (12/40). […] This relationship also lacked statistical significant (P=0.14, Logrank Test).
Patient samples were re-classified into two groups based on predicted high and low TS expression using the tandem repeat polymorphism and the SNP. Since it was hypothesized that the SNP, or variant 3R (3RV) allele, would decrease the TS gene expression of a 3R allele, 21 patients were grouped with genotypes of 2R/2R, 2R/3RV and 3RV/3RV into the predicted “low TS expression” group (Group A) and 19 patients with 2R/3R, 3R/3RV, and 3R/3R into the predicted “high TS expression” group (Group B). These groups were then re-evaluated for an association between TS genotypes and clinical outcome to 5-FU chemotherapy.
The presence of the new SNP within the TS gene was confirmed in Non-Hispanic Whites. Individuals (disease-free controls) were initially recruited for a cancer case-control study in California as described in Castelao et al., 2001. Patients included in this study has metastatic colorectal cancer and were enrolled in the following protocols: Southwest Oncology Group protocol 9420 (19 patients, 5-FU doses used: CI (continuous infusion) 300 mg/m^2/d v. CI 2600 mg/m^2/d q weekly) opened for accrual in May 1995 and closed in May 1999; and the University of Southern California protocol: 3C-92-2 (21 patients, 5-FU doses used: CI 200 mg/m^2/d q weekly for three weeks followed by one week rest) opened for accrual in September 1992 and closed in June 1995. All patients signed an informed consent to participate in the clinical trial and for evaluation of the TS polymorphism. Genotyping for the TS polymorphism was performed on paraffin-embedded tissues in all patients.
All patients had bi-dimensionally measurable disease at the time of protocol entry. Responders to therapy were classified as those patients whose tumor burden (the sum, overall measurable lesions of the products of the largest diameter and its perpendicular diameter) decreased by 50% or more for at least six weeks. Progressive disease was defined as 25% or more increase in tumor burden (compared to the smallest measurement) or the appearance of new lesions.
Survival was computed as the number of months from the initiation of chemotherapy with 5-FU to death of any cause. Patients who were alive at the last follow-up evaluation were censored at that time.
Contingency tables and Fisher's exact test (Metha et al., 1983) were used to summarize the association of response (grouped as response, stable disease, and progressive disease) to 5-FU with the TS genotypes. Kaplan-Meier plots (Kaplan et al., 1958) and the log-rank test (Miller et al., 1981) were used to compare survival of patients according to TS genotypes. Median survival was calculated based on the Kaplan-Meier estimator. All p-values are two-sided.

Series [2] deals with T1, USF-1 phosphorylated by cdc2/p34 (Homo sapiens, UniProt P22415 P22415:1-310). The experiment in a line: EMSA; 1 mM MgCl2, 50 mM NaCl, room temperature. As to conditions: tags: N-terminal 6xHis (pProEX-HTb, E. coli), in vitro phosphorylated with cdc2/p34; chain copies: 2; label: 32P. The method, then: Since the potential G→C SNP at the 12th nucleotide of the 28 bp repeats lies within the USF binding site, the ability of the recombinant USF-1 protein to bind the variant consensus element by EMSA was tested. […] Gel mobility shift analyses were performed using recombinant USF-1 with a ³²P-labeled 28 bp probe corresponding to one tandem repeat containing a G→C base change at the 12th nucleotide. Lane 1 was free probe. In lane 2, 30 ng of recombinant USF-1 was incubated with probe. In lane 3, 30 ng of phospho-USF-1 was incubated with probe.
Synthetic double-stranded oligonucleotides (Integrated DNA Technologies) corresponding to a wild type (R) or variant (RV) 28 bp tandem repeat sequence from the TS 5′ regulatory region were labeled with [γ-³²P] ATP (Amersham Pharmacia Biotech) according to the Gel-Shift Assay Kit protocol (Promega). For each gel shift reaction, 10,000 cpm of labeled probe 30 ng of recombinant USF-1 for 20 min at room temperature in a 20 μl reaction mixture containing 10 mM Tris-HCl, pH 7.5, 50 mM NaCl, 0.5 mM dithiothreitol, 0.5 mM EDTA, 4% glycerol, 1 mM MgCl₂ and 0.1 μg of poly(dIdC) DNA. Where indicated, unlabeled competitor oligonucleotides were incubated for 10 min at room temperature with nuclear extracts prior to addition of labeled probe.
Reactions using recombinant USF-1 contained ˜30 ng of either USF-1 or phospho USF-1. […]

In series [3] the target is T1, USF-1 phosphorylated by cdc2/p34. Put plainly: EMSA; consensus probe; sequence taken from the listed USF-1 specific oligonucleotide. The following applies: tags: N-terminal 6xHis (pProEX-HTb, E. coli), in vitro phosphorylated with cdc2/p34; chain copies: 2; label: 32P when used as probe. The method, then:
When both forms of USF-1 were used in an EMSA assay utilizing the perfect USF-1 consensus element as a probe, only the phosphorylated form was able to bind (FIG. 3B, lanes 2 and 3). Gel mobility shift analyses were performed using recombinant USF-1 with a ³²P-labeled USF-1 specific consensus probe containing an intact E-box site. Lane 1 contained only free probe. Lane 2 was 30 ng of recombinant phospho-USF-1 incubated with probe in the absence of unlabeled competitor oligonucleotides. Lane 3 contained 30 ng of recombinant unphosphorylated USF-1 incubated with probe in the absence of unlabeled specific competitor oligonucleotides. In lanes 4-5, phospho-USF-1 was pre-incubated with 500 molar excess of unlabeled USF-1 specific competitor oligonucleotide and 500 molar excess of nonspecific dIdC competitor, respectively.
Synthetic double-stranded oligonucleotides (Integrated DNA Technologies) corresponding to a wild type (R) or variant (RV) 28 bp tandem repeat sequence from the TS 5′ regulatory region were labeled with [γ-³²P] ATP (Amersham Pharmacia Biotech) according to the Gel-Shift Assay Kit protocol (Promega). For each gel shift reaction, 10,000 cpm of labeled probe 30 ng of recombinant USF-1 for 20 min at room temperature in a 20 μl reaction mixture containing 10 mM Tris-HCl, pH 7.5, 50 mM NaCl, 0.5 mM dithiothreitol, 0.5 mM EDTA, 4% glycerol, 1 mM MgCl₂ and 0.1 μg of poly(dIdC) DNA. […]

Series [4] has the same target. The experiment in a line: EMSA; 1 mM MgCl2, 50 mM NaCl, room temperature; abolished by USF-1 specific competitor. The following applies: tags: N-terminal 6xHis (pProEX-HTb, E. coli), in vitro phosphorylated with cdc2/p34; chain copies: 2; label: 32P. On the procedure: To determine the ability of the phosphorylated form of USF-1 to bind to its consensus element within the TS repeat, an EMSA assay was carried out using the ³²P-labeled 28 bp sequence as a probe corresponding to one tandem repeat containing an intact E-box site. Lane 1 was free probe. In lane 2, 30 ng of recombinant USF-1 was incubated with probe in the absence of unlabeled competitor oligonucleotides. In lane 3, 30 ng of phospho-USF-1 was incubated with probe in the absence of unlabeled competitor oligonucleotides. In lanes 4-6, phospho-USF-1 was pre-incubated with 500 molar excess of: unlabeled probe, USF-1 specific competitor, and non-specific poly (dIdC) competitor oligonucleotides, respectively. Incubation of the phosphorylated form of USF-1 with the probe caused a shift on the gel that was abolished by the addition of unlabeled specific competitor oligonucleotides (FIG. 3C, lanes 3 and 5).
Synthetic double-stranded oligonucleotides (Integrated DNA Technologies) corresponding to a wild type (R) or variant (RV) 28 bp tandem repeat sequence from the TS 5′ regulatory region were labeled with [γ-³²P] ATP (Amersham Pharmacia Biotech) according to the Gel-Shift Assay Kit protocol (Promega). […]

The mark [5] stands for this setting: patients with TS genotype 2R/2R (n = 8).
The mark [6] stands for this setting: patients with TS genotype 2R/3R (n = 20).
[7] abbreviates: patients with TS genotype 3R/3R (n = 12).

T1 sequence (P22415 whole entry, one chain of several): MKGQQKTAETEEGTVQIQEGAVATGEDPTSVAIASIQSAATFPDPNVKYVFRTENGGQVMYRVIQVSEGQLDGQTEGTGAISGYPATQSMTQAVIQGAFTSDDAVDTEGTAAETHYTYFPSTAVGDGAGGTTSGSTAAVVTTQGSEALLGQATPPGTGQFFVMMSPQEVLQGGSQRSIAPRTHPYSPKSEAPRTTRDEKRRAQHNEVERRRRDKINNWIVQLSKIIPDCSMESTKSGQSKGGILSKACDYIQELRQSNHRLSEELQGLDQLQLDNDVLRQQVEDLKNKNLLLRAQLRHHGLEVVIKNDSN

As for `O=c1[nH]cc(F)c(=O)[nH]1` [5-FU, 5-fluorouracil], the median survival in series [1] (3R/3R carriers) was determined as 8.4 months; in series [1] (heterozygous group (2R/3R)), 7.4 months; in series [1] (patients with TS genotype 2R/2R) it was 16.2 months. The survival in series [1] (Group A, predicted low TS expression (2R/2R, 2R/3RV, 3RV/3RV)) was 10.1 months; in series [1] (Group B, predicted high TS expression (2R/3R, 3R/3RV, 3R/3R)), 7.4 months. Besides, the “Clinical Response: Stable Disease” value is recorded as 4 (19%) in series [1] (Group A, predicted low TS expression: 2R/2R, 2R/3RV, 3RV/3RV (n = 21)); 7 (37%) in series [1] (Group B, predicted high TS expression: 2R/3R, 3R/3R, 3R/3RV (n = 19)); 1 (13%) in series [1] (setting [5]); 5 (25%) in series [1] (setting [6]); 5 (42%) in series [1] (setting [7]). In addition, the “Clinical Response: Progression” value in series [1] (setting [5]) is recorded as 3 (37%); in series [1] (setting [6]) it was 12 (60%); in series [1] (setting [7]) it was 7 (58%). For the same molecule, the “disease response (patients responding/total)” value in series [1] (patients with TS genotype 3R/3R) is listed as 0/12. In addition, in series [1] (setting [7]), the “Clinical Response: Response” value is reported as 0 (0%).

B1: TS variant tandem repeat (RV) (dsDNA)
DNA 1: CCGCGCCACTTCGCCTGCCTCCGTCCCG
DNA 2: CGGGACGGAGGCAGGCGAAGTGGCGCGG
For the molecule B1, the binding result in series [2] was “no binding”.

B2: USF-1 consensus oligonucleotide (dsDNA)
DNA 1: CACCCGGTCACGTGGCCTACACC
DNA 2: GGTGTAGGCCACGTGACCGGGTG
As to B2, in series [3], the binding result is recorded as “binds”.

B3: TS wild-type tandem repeat (R) (dsDNA)
DNA 1: CCGCGCCACTTGGCCTGCCTCCGTCCCG
DNA 2: CGGGACGGAGGCAGGCCAAGTGGCGCGG
In the case of B3, in series [4], the binding result was “binds”.
